We go through 25 molecules from patent US20240400515A1, “NPM1-DEPENDING LEUKEMIA AGENTS” (UNIVERSIDAD COMPLUTENSE DE MADRID, priority 2021, published 2024).

The subject of one assay is OCI-AML3 (NPM1 C+). Nature of the assay: Viability assay (WST-1) in OCI-AML3 cell line. The assay is classed as cell-based. Particulars: Homo sapiens, OCI-AML-3, viability percentage relative to vehicle, 24 h. As to the method: (§1) Two different acute myeloid leukemia cell lines, OCI-AML3 (NPM1 C+) and MOLM13 (NPM1 C−) were obtained from the DSMZ cell repository (Braunschweig, Germany). Cell lines were expanded and cryogenically frozen upon acquisition to establish stocks in liquid nitrogen until use. Cultured cells were maintained at 37° C. in a humidified incubator in an atmosphere of 5% CO2 and passaged every 2-3 days. RPMI media (Gibco/Life Technologies; Grand Island, NY) supplemented with 10% fetal bovine serum (FBS) (Hyclone) and 1% penicillin/streptomycin was used.
(§2) The sensitivity of the compounds on OCI-AML3 (NPM1 C+) and MOLM13 (NPM1 C−) cell viability was assessed as an in-vitro acute myeloid leukemia (AML) model. Briefly, cells were seeded at a density of 2×10^4 cells/100 μL/well in 96-well plates. Cell lines were treated for 24 h with the test compound diluted in DMSO at the concentration of 5 μM or vehicle (DMSO). Then, 10 μL of WST-1 solution ((2-(4-iodophenyl)-3-(4-nitrophenyl)-5-(2,4-disulfophenyl)-2H-tetrazolium monosodium salt, Merck) were added and the cells were incubated for 4 h at 37° C. The absorbance was measured at 450 nm using an Asys UVM 340 microplate reader (Biochrom Ltd., Cambridge, UK). The background absorbance of blank wells containing only medium was subtracted from each test well. The data were reported as viability percentage relative to vehicle, obtained from two or three independent experiments performed in triplicate (Table 1).

Another assay has as its system MOLM13 (NPM1 C−). Nature of the assay: Viability assay (WST-1) in MOLM13 cell line. The assay is classed as cell-based. Particulars: Homo sapiens, MOLM-13, viability percentage relative to vehicle, 24 h. As for the experimental part: as §1, §2

Turning to `Cc1ccc([C@H]2Cc3[nH]c4ccc(Cl)cc4c3[C@@H](CCNCC3CC(F)(F)C3)[C@@H]2N)cc1` [Iab, (2R,3R,4R)-6-Chloro-4-(2-{[(3,3-difluorocyclobutyl)methyl]amino}ethyl)-2-(4-methylphenyl)-2,3,4,9-tetrahydro-1H-carbazol-3-amine], the viability at 5 µM with OCI-AML3 (NPM1 C+) was found to be 17 ± 4%; in the assay with MOLM13 (NPM1 C−), 14 ± 8%.
Taken in the same sequence, the figures for `N[C@@H]1[C@@H](c2cccc(Cl)c2)Cc2[nH]c3ccccc3c2[C@H]1CCNCC1CC1` [Ih, (2R,3R,4R)-2-(3-Chlorophenyl)-4-{2-[(cyclopropylmethyl)amino]ethyl}-2,3,4,9-tetrahydro-1H-carbazol-3-amine] were 25 ± 7% and 28 ± 10%.
Taken in the same sequence, the figures for `Cc1ccc([C@H]2Cc3[nH]c4ccccc4c3[C@@H](CCNCC(C)C)[C@@H]2N)cc1` [Ix, (2R,3R,4R)-2-(4-Methylphenyl)-4-{2-[(2-methylpropyl)amino]ethyl}-2,3,4,9-tetrahydro-1H-carbazol-3-amine] were 0% and 0%.
Take `Cc1ccc([C@H]2Cc3[nH]c4ccccc4c3[C@@H](CCNCC3CC3)[C@@H]2N)cc1` [Ib, (2R,3R,4R)-4-{2-[(Cyclopropylmethyl)amino]ethyl}-2-(4-methylphenyl)-2,3,4,9-tetrahydro-1H-carbazol-3-amine]: the viability at 5 µM in the assay on OCI-AML3 (NPM1 C+) was 16%; in the assay with MOLM13 (NPM1 C−) it was 20 ± 5%.
Taken in the same sequence, the figures for `Cc1ccccc1[C@H]1Cc2[nH]c3ccccc3c2[C@@H](CCNCC2CC2)[C@@H]1N` [Im, (2R,3R,4R)-4-{2-[(Cyclopropylmethyl)amino]ethyl}-2-(2-methylphenyl)-2,3,4,9-tetrahydro-1H-carbazol-3-amine] were 36 ± 8% and 61 ± 7%.
Take `N[C@@H]1[C@@H](c2ccc(C(F)(F)F)cc2)Cc2[nH]c3ccccc3c2[C@H]1CCNCC1CC1` [Ie, (2R,3R,4R)-4-{2-[(Cyclopropylmethyl)amino]ethyl}-2-[4-(trifluoromethyl)phenyl]-2,3,4,9-tetrahydro-1H-carbazol-3-amine]: the figures for the viability at 5 µM with OCI-AML3 (NPM1 C+) and with MOLM13 (NPM1 C−) were 14 ± 5% and 13 ± 3%, respectively.
The corresponding values for `COc1ccc2[nH]c3c(c2c1)[C@@H](CCNCC1CC1)[C@H](N)[C@@H](c1ccc(C)cc1)C3` [Iaf, (2R,3R,4R)-4-{2-[(Cyclopropylmethyl)amino]ethyl}-6-methoxy-2-(4-methylphenyl)-2,3,4,9-tetrahydro-1H-carbazol-3-amine] are 39 ± 6% and 60 ± 2%.
Take `Cc1ccc([C@H]2Cc3[nH]c4ccccc4c3[C@@H](CCNCC3CC(F)(F)C3)[C@@H]2N)cc1` [Iu, (2R,3R,4R)-4-(2-{[(3,3-Difluorocyclobutyl)methyl]amino}ethyl)-2-(4-methylphenyl)-2,3,4,9-tetrahydro-1H-carbazol-3-amine]: the viability at 5 µM in the assay with OCI-AML3 (NPM1 C+) came to 4 ± 3%; in the assay with MOLM13 (NPM1 C−), 6 ± 1%.
With `Cc1ccc([C@H]2Cc3[nH]c4ccc(Cl)cc4c3[C@@H](CCNCC3CC3)[C@@H]2N)cc1` [Iag, (2R,3R,4R)-6-Chloro-4-{2-[(cyclopropylmethyl)amino]ethyl}-2-(4-methylphenyl)-2,3,4,9-tetrahydro-1H-carbazol-3-amine], the viability at 5 µM came out at 9 ± 5% in the assay with OCI-AML3 (NPM1 C+) and 10 ± 6% with MOLM13 (NPM1 C−).
The corresponding values for `N[C@H]1[C@H](c2ccc(F)cc2)Cc2[nH]c3ccccc3c2[C@@H]1CCNCC1CC1` [Ip, (2S,3S,4S)-4-{2-[(Cyclopropylmethyl)amino]ethyl}-2-(4-fluorophenyl)-2,3,4,9-tetrahydro-1H-carbazol-3-amine] are 7 ± 3% and 7 ± 2%.
The corresponding values for `Cc1ccc([C@H]2Cc3c(c4ccccc4n3C)[C@@H](CCNCC3CC3)[C@@H]2N)cc1` [Ial, (2R,3R,4R)-4-{2-[(Cyclopropylmethyl)amino]ethyl}-9-methyl-2-(4-methylphenyl)-2,3,4,9-tetrahydro-1H-carbazol-3-amine] are 22 ± 2% and 17%.
On to `Cc1ccc([C@H]2Cc3[nH]c4ccccc4c3[C@@H](CCNC3CC3)[C@@H]2N)cc1` [Iaa, (2R,3R,4R)-4-[2-(Cyclopropylamino)ethyl]-2-(4-methylphenyl)-2,3,4,9-tetrahydro-1H-carbazol-3-amine], for which the viability at 5 µM amounted to 1 ± 1% in the assay with OCI-AML3 (NPM1 C+) and 2 ± 2% in the assay with MOLM13 (NPM1 C−).
The corresponding values for `Cc1ccc([C@H]2Cc3[nH]c4ccc(C)cc4c3[C@@H](CCNCC3CC3)[C@@H]2N)cc1` [Iai, (2R,3R,4R)-4-{2-[(Cyclopropylmethyl)amino]ethyl}-6-methyl-2-(4-methylphenyl)-2,3,4,9-tetrahydro-1H-carbazol-3-amine] are 12 ± 2% and 6 ± 2%.
With `CN[C@@H]1[C@@H](c2ccc(OC)cc2)Cc2[nH]c3ccccc3c2[C@H]1CCNCC1CC1` [Ir, (2R,3R,4R)-4-{2-[(Cyclopropylmethyl)amino]ethyl}-2-(4-methoxyphenyl)-N-methyl-2,3,4,9-tetrahydro-1H-carbazol-3-amine], the viability at 5 µM came to 11 ± 3% in the assay with OCI-AML3 (NPM1 C+) and 15% in the assay with MOLM13 (NPM1 C−).
The corresponding values for `Cc1ccc([C@H]2Cc3[nH]c4ccc(F)cc4c3[C@@H](CCNCC3CC3)[C@@H]2N)cc1` [Iaj, (2R,3R,4R)-4-{2-[(Cyclopropylmethyl)amino]ethyl}-6-fluoro-2-(4-methylphenyl)-2,3,4,9-tetrahydro-1H-carbazol-3-amine] are 7 ± 1% and 4 ± 1%.
Consider `CCNCC[C@@H]1c2c([nH]c3ccccc23)C[C@H](c2ccc(C)cc2)[C@H]1N` [Iz, (2R,3R,4R)-4-[2-(Ethylamino)ethyl]-2-(4-methylphenyl)-2,3,4,9-tetrahydro-1H-carbazol-3-amine], for which the viability at 5 µM worked out at 8 ± 4% in the assay on OCI-AML3 (NPM1 C+) and 8 ± 3% in the assay with MOLM13 (NPM1 C−).
Taken in the same sequence, the figures for `COc1ccc([C@@H]2Cc3[nH]c4ccccc4c3[C@H](CCNCC3CC3)[C@H]2N)cc1` [Id, (2S,3S,4S)-4-{2-[(Cyclopropylmethyl)amino]ethyl}-2-(4-methoxyphenyl)-2,3,4,9-tetrahydro-1H-carbazol-3-amine] were 33 ± 5% and 40%.
With `COc1ccc([C@H]2Cc3[nH]c4ccc(Cl)cc4c3[C@@H](CCNCC3CC3)[C@@H]2N)cc1` [Iah, (2R,3R,4R)-6-Chloro-4-{2-[(cyclopropylmethyl)amino]ethyl}-2-(4-methoxyphenyl)-2,3,4,9-tetrahydro-1H-carbazol-3-amine], the viability at 5 µM in the assay on OCI-AML3 (NPM1 C+) was determined as 26 ± 12%; in the assay on MOLM13 (NPM1 C−), 16 ± 2%.
The corresponding values for `N[C@@H]1[C@@H](c2ccc(Cl)cc2)Cc2[nH]c3ccccc3c2[C@H]1CCNCC1CC1` [Ii, (2R,3R,4R)-2-(4-Chlorophenyl)-4-{2-[(cyclopropylmethyl)amino]ethyl}-2,3,4,9-tetrahydro-1H-carbazol-3-amine] are 13 ± 4% and 13 ± 1%.
Taken in the same sequence, the figures for `N[C@@H]1[C@@H](c2cccc(F)c2)Cc2[nH]c3ccccc3c2[C@H]1CCNCC1CC1` [Iq, (2R,3R,4R)-4-{2-[(Cyclopropylmethyl)amino]ethyl}-2-(3-fluorophenyl)-2,3,4,9-tetrahydro-1H-carbazol-3-amine] were 18 ± 6% and 34 ± 4%.
As for `Cc1cccc([C@H]2Cc3[nH]c4ccccc4c3[C@@H](CCNCC3CC3)[C@@H]2N)c1` [Il, (2R,3R,4R)-4-{2-[(Cyclopropylmethyl)amino]ethyl}-2-(3-methylphenyl)-2,3,4,9-tetrahydro-1H-carbazol-3-amine], the viability at 5 µM in the assay on OCI-AML3 (NPM1 C+) came out at 19 ± 7%; in the assay on MOLM13 (NPM1 C−), 32 ± 4%.
Take `N[C@@H]1[C@@H](c2ccc(F)cc2)Cc2[nH]c3ccccc3c2[C@H]1CCNCC1CC1` [Io, (2R,3R,4R)-4-{2-[(Cyclopropylmethyl)amino]ethyl}-2-(4-fluorophenyl)-2,3,4,9-tetrahydro-1H-carbazol-3-amine]: the viability at 5 µM in the assay on OCI-AML3 (NPM1 C+) is 16 ± 1%; with MOLM13 (NPM1 C−) it was 13 ± 5%.
Consider `CN[C@H]1[C@H](c2ccc(OC)cc2)Cc2[nH]c3ccccc3c2[C@@H]1CCNCC1CC1` [Is, (2S,3S,4S)-4-{2-[(Cyclopropylmethyl)amino]ethyl}-2-(4-methoxyphenyl)-N-methyl-2,3,4,9-tetrahydro-1H-carbazol-3-amine], for which the figures for the viability at 5 µM with OCI-AML3 (NPM1 C+) and with MOLM13 (NPM1 C−) were 1% and 6 ± 1%, respectively.
Regarding `N[C@@H]1[C@@H](c2ccccc2Cl)Cc2[nH]c3ccccc3c2[C@H]1CCNCC1CC1` [In, (2R,3S,4R)-2-(2-Chlorophenyl)-4-{2-[(cyclopropylmethyl)amino]ethyl}-2,3,4,9-tetrahydro-1H-carbazol-3-amine], the results for the viability at 5 µM in the assay with OCI-AML3 (NPM1 C+) and in the assay with MOLM13 (NPM1 C−) were 29 ± 1% and 28 ± 4%, respectively.
The corresponding values for `COc1ccccc1[C@H]1Cc2[nH]c3ccccc3c2[C@@H](CCNCC2CC2)[C@@H]1N` [Ik, (2R,3S,4R)-4-{2-[(Cyclopropylmethyl)amino]ethyl}-2-(2-methoxyphenyl)-2,3,4,9-tetrahydro-1H-carbazol-3-amine] are 23 ± 3% and 30 ± 2%.
